Test results from US7375088B2, “Polyene polyketides, processes for their production and their use as a pharmaceutical” (Thallion Pharmaceuticals Inc., priority 2003, dated 2008).

How the values were obtained:
[1] = tested on: C. albicans SC5314; assay: Mouse model of disseminated candidiasis (survival); format: in vivo; conditions: for Median survival: CD-1 mice infected i.v. with C. albicans SC5314, observed 21 days
Procedure: Compound 2(a) was provided as a dry powder with an estimated purity of 95+%. Fungizone (amphotericin B desoxycholate, to be used as a comparitor), was also provided as a dry powder with an estimated purity of 95+%. The compound 2(a) and Fungizone were stored as dry powders at −80° C. until the day of administration.
Female mice (species Mus musculus, strain CD-1, Charles River) with body weight range of 22-24 g were used in the study. […] All animal experiments were performed at the Ste-Justine Hospital (Montreal, Quebec) according to ethical guidelines of animal experimentation of the ethical committee of the hospital. During the study, dead or apparently sick animals were promptly removed and sick mice were euthanized upon removal from the cage.
The animals were maintained in rooms under controlled conditions of temperature (23±2° C.), humidity (45±5%), photoperiodicity (12 hrs light/12 hrs dark) and air exchange. The animals were housed in polycarbonate cages (4/single cage) equipped to provide food and water. Sterile wood shavings were used for animal bedding and the bedding was replaced every other day. Food (Harlam Tecklab, Canada) and autoclaved tap water was provided ab libitum, the food being placed in the metal lid on top of the cage. Water bottles were equipped with rubber stoppers and sipper tubes and were cleaned, sterilized and replaced once a week.
Six groups of mice (10 mice per group) were infected intravenously with 3×10^6 CFU of C. albicans SC5314 as previously described (see Dubois, N., et al., Microbiology 1998, 144: 2299-2310). Twenty-four hours after infection, each individual group of mice was treated with Compound 2(a) (1 or 3 mg/kg i.p.), Fungizone (0.25, 0.5 or 1 mg/kg i.p.) as comparitor, or sham-treated with sterile water containing 5% dextrose and 3% DMSO. Each animal received 100 μl of test solution.
The treatment regimen was repeated once daily for a total of 4 days. The mice were observed twice daily for signs of morbidity over 21 days. Moribund animals were scored as non-survivors and euthanized by CO2 inhalation. […]

[2] = tested on: Aspergillus flavus; assay: Disk diffusion assay (MEC and zone of inhibition); format: cell-based

Which results are given for `CC(C=CCCC=CC=CC=CC=CC(=O)NC1=C(O)CCC1=O)C(O)C(C)C(O)C=CC=CC=CC=CC=CCC(OC1OC(C)C(O)C(O)C1O)C(C)C(=O)CC(O)CC(O)CC(O)C=CCC(O)CC(O)CC(O)CC(O)C=CCC(O)CC(O)CCCN` (stereo not drawn) [Compound 2(a), 56-Amino-15,17,33,35,37,41,43,45,47,51,53-undecahydroxy-14,16,30-trimethyl-31-oxo-29-(3,4,5-trihydroxy-6-methyl-tetrahydro-pyran-2-yloxy)-hexapentaconta-2,4,6,8,12,18,20,22,24,26,38,48-dodecaenoic acid (2-hydroxy-5-oxo-cyclopent-1-enyl)-amide]?
Median survival ([1]; 1.0 mg/kg i.p. once daily for 4 days): 8.5 days; Median survival ([1]; 3.0 mg/kg i.p. once daily for 4 days): 20 days; increase of the median survival time of infected mice ([1]; versus vehicle (median survival 5 days)): 4 fold; antifungal activity in disk diffusion assay [2]: active; ZOI (zone of inhibition of fungal growth calculated for each MEC) ([2]; at the MEC, 24 hours of incubation): 2.7 mm; MEC (minimum effective concentration) ([2]; disk diffusion, 24 hours of incubation): 2.5 µg/mL
